The source of these data is article PMC6222832, “Kinetic Characterization of Novel HIV-1 Entry Inhibitors: Discovery of a Relationship between Off-Rate and Potency” (Molecules : A Journal of Synthetic Chemistry and Natural …, 2018).

Series [1] deals with HIV-1 JR-CSF Env pseudotyped HIV-1. Nature of the series: microbe, parasite or virus in culture. To be noted: Human immunodeficiency virus 1, U87/CD4/CCR5, 48 h, read-out: IC50 JR-CSF. It is filed as cell-based.
For series [2], the system named is HIV-1 B41 Env pseudotyped HIV-1. Nature of the series: microbe, parasite or virus in culture. In kind it is cell-based. The following applies: Human immunodeficiency virus 1, U87/CD4/CCR5, 48 h, read-out: IC50 B41.
Series [3] concerns HIV-1B41 and HIV-1JR-CSF Env pseudotyped virions. Nature of the series: microbe, parasite or virus in culture. It is filed as cell-based. The following applies: Human immunodeficiency virus 1, read-out: Median IC50.
Series [4] has as its target B41 SOSIP.664 gp140 trimer (Human immunodeficiency virus type 1, UniProt B3UES2, A505C/E513R/I563P/INS515RR/K514R/T609C). In kind it is binding, HIV-1.
The next series in a line: in vitro. The following applies: human.
Series [5] addresses HIV-1 B41 SOSIP.664 gp140 trimer (Human immunodeficiency virus type 1, UniProt B3UES2, A505C/E513R/I563P/INS515RR/K514R/T609C). In kind it is binding.

Molecules are shown by their SMILES.

For the molecule `COc1cnc(-n2cnc(C)n2)c2[nH]cc(C(=O)C(=O)N3CC(CSC(=O)c4ccccc4)C3)c12` [SC16], the IC50 in series [1] was 29 ± 8 nM; in series [2], 37 ± 5 nM; in series [3], 33 nM. The same molecule yielded a ka in series [4] of 86200 M⁻¹ s⁻¹. Besides, the kd in series [4] worked out at 0.00598 s⁻¹. Moreover, in “in vitro”, the CC50 at 48 h was > 50000 nM.

Regarding `COc1cnc(-n2cnc(C)n2)c2[nH]cc(C(=O)C(=O)N3CC4CN(C(=O)c5ccccc5)CC4C3)c12` (centres unmarked) [SC11], the half-maximal inhibitory concentration (IC50) in series [1] is 0.6 ± 0.1 nM; in series [2], 2 ± 0.2 nM; in series [3] it was ~2 nM. In series [4], the ka came out at 4330 M⁻¹ s⁻¹. Further, the kd in series [4] was determined as 0.000287 s⁻¹. For the same molecule, the CC50 at 48 h in the series “in vitro” was > 50000 nM.

In the case of `COc1cnc(-n2cnc(C)n2)c2[nH]cc(C(=O)C(=O)N3CC4C=NN(c5nnnn5-c5ccccc5)C4C3)c12` (centres unmarked) [SC39], the IC50 was 143 ± 52 nM in series [1], 5320 ± 260 nM in series [2] and 2730 nM in series [3]. In series [4], this molecule returned a ka of 1390 M⁻¹ s⁻¹. Moreover, the kd in series [4] was 0.0381 s⁻¹. The CC50 at 48 h in the series “in vitro” was > 50000 nM.

On to `COc1cnc(-n2cnc(C)n2)c2[nH]cc(C(=O)C(=O)N3CCN(C(=O)c4ccccc4)CC3)c12` [BMS-626529, reference compound], for which the IC50 in series [1] is 0.06 ± 0.005 nM; in series [2], 0.05 ± 0.006 nM; in series [3], 0.055 nM. This molecule also returned a ka in series [5] of 38900 M⁻¹ s⁻¹. Also, the kd in series [5] came out at 0.00059 s⁻¹.

Turning to `COc1cnc(-n2cnc(C)n2)c2[nH]cc(C(=O)C(=O)N(C)C3CN(C(=O)c4ccccc4)C3)c12` [SC18], the concentration for half-maximal inhibition (IC50) in series [1] worked out at 132 ± 4 nM; in series [2], 360 ± 12 nM; in series [3], 246 nM. The molecule also yielded a ka in series [4] of 15900 M⁻¹ s⁻¹. In series [4], this molecule came in with a kd of 0.0248 s⁻¹. Besides, the CC50 at 48 h in the series “in vitro” is > 50000 nM.

Usually IC50 stands for the concentration needed to halve the response being measured.
